Laboratory results published in publication PMC8564858, “Flavonoid-based inhibitors of the Phi-class glutathione transferase from black-grass to combat multiple herbicide resistance” (Organic & Biomolecular Chemistry, 2021).

What was measured:
AmGSTF1 [1] = experiment: CDNB assay: inhibition of AmGSTF1-catalysed glutathionylation of CDNB; type: biochemical, Alopecurus myosuroides; conditions: three replicate measurements
AmGSTF1 [2] = experiment: Thermal shift assay; type: binding, Alopecurus myosuroides; conditions: difference in melting temperature compared to no ligand
[3] = system: HS black-grass (Rothamsted); experiment: Petri-dish seedling assay with pendimethalin; type: in vivo, Alopecurus myosuroides; conditions: 5 ppm pendimethalin alone
MHR black-grass (Peldon) = experiment: Petri-dish seedling assay with pendimethalin; type: in vivo, Alopecurus myosuroides; conditions: Peldon-MHR; 5 ppm pendimethalin alone
[4] = Aqueous solubility (qualitative); type: physicochemical

COc1cc(OC)c2c(=O)cc(-c3ccc(OC)c(OC)c3)oc2c1 [18g]
CDNB Assay % Inhibition (AmGSTF1 [1]; 10 µM compound): 11% | CDNB Assay % Inhibition (AmGSTF1 [1]; 100 µM compound): 100% | Thermal Shift Assay ∆Tm (AmGSTF1 [2]; 1 µM): 0.30 | Thermal Shift Assay ∆Tm (AmGSTF1 [2]; 10 µM): -0.03 | Thermal Shift Assay ∆Tm (AmGSTF1 [2]; 100 µM): 0.17

COc1cc(OC)c2c(=O)cc(-c3ccc4c(c3)OCO4)oc2c1 [18h]
CDNB Assay % Inhibition (AmGSTF1 [1]; 10 µM compound): 12% | CDNB Assay % Inhibition (AmGSTF1 [1]; 100 µM compound): 33% | Thermal Shift Assay ∆Tm (AmGSTF1 [2]; 1 µM): 0.27 | Thermal Shift Assay ∆Tm (AmGSTF1 [2]; 10 µM): 0.17 | Thermal Shift Assay ∆Tm (AmGSTF1 [2]; 100 µM): 0.33

COC(=O)c1ccc(-c2cc(=O)c3c(OC)cc(OC)cc3o2)cc1 [18i]
CDNB Assay % Inhibition (AmGSTF1 [1]; 10 µM compound): 20% | CDNB Assay % Inhibition (AmGSTF1 [1]; 100 µM compound): 58% | Thermal Shift Assay ∆Tm (AmGSTF1 [2]; 1 µM): 0.27 | Thermal Shift Assay ∆Tm (AmGSTF1 [2]; 10 µM): 0.30 | Thermal Shift Assay ∆Tm (AmGSTF1 [2]; 100 µM): 0.27

COc1cc(OC)c2c(=O)cc(-c3ccccc3C)oc2c1 [18j]
CDNB Assay % Inhibition (AmGSTF1 [1]; 10 µM compound): 9% | CDNB Assay % Inhibition (AmGSTF1 [1]; 100 µM compound): 36% | Thermal Shift Assay ∆Tm (AmGSTF1 [2]; 1 µM): -0.13 | Thermal Shift Assay ∆Tm (AmGSTF1 [2]; 10 µM): -0.03 | Thermal Shift Assay ∆Tm (AmGSTF1 [2]; 100 µM): -0.03

COc1cc(OC)c2c(=O)cc(-c3cccc(S(C)(=O)=O)c3)oc2c1 [18k]
CDNB Assay % Inhibition (AmGSTF1 [1]; 10 µM compound): 11% | CDNB Assay % Inhibition (AmGSTF1 [1]; 100 µM compound): 60% | Thermal Shift Assay ∆Tm (AmGSTF1 [2]; 1 µM): 0.20 | Thermal Shift Assay ∆Tm (AmGSTF1 [2]; 10 µM): 0.10 | Thermal Shift Assay ∆Tm (AmGSTF1 [2]; 100 µM): 0.30

COc1cc(OC)c2c(=O)cc(-c3ccc(S(C)(=O)=O)cc3)oc2c1 [18l]
CDNB Assay % Inhibition (AmGSTF1 [1]; 10 µM compound): 14% | CDNB Assay % Inhibition (AmGSTF1 [1]; 100 µM compound): 35% | Thermal Shift Assay ∆Tm (AmGSTF1 [2]; 1 µM): 0.13 | Thermal Shift Assay ∆Tm (AmGSTF1 [2]; 10 µM): 0.20 | Thermal Shift Assay ∆Tm (AmGSTF1 [2]; 100 µM): 0.30

COc1cc(OC)c2c(=O)cc(-c3ccncc3)oc2c1 [18m]
CDNB Assay % Inhibition (AmGSTF1 [1]; 10 µM compound): 10% | CDNB Assay % Inhibition (AmGSTF1 [1]; 100 µM compound): 50% | Thermal Shift Assay ∆Tm (AmGSTF1 [2]; 1 µM): 0.23 | Thermal Shift Assay ∆Tm (AmGSTF1 [2]; 10 µM): 0.27 | Thermal Shift Assay ∆Tm (AmGSTF1 [2]; 100 µM): 0.23

COc1cc(OC)c2c(=O)cc(-c3cnnc(C)c3)oc2c1 [18n]
CDNB Assay % Inhibition (AmGSTF1 [1]; 10 µM compound): 8% | CDNB Assay % Inhibition (AmGSTF1 [1]; 100 µM compound): 64% | Thermal Shift Assay ∆Tm (AmGSTF1 [2]; 1 µM): -0.07 | Thermal Shift Assay ∆Tm (AmGSTF1 [2]; 10 µM): -0.13 | Thermal Shift Assay ∆Tm (AmGSTF1 [2]; 100 µM): -0.33

CCC(CC)Nc1c([N+](=O)[O-])cc(C)c(C)c1[N+](=O)[O-] [Pendimethalin, pendimethalin, reference compound]
Percentage of normal shoot 14 d after treatment [3]: 52% | Percentage of normal shoot 14 d after treatment (MHR black-grass (Peldon)): 82%

O=c1cc(-c2ccccc2)oc2cc(O)cc(O)c12 [compound 2, 5,7-dihydroxyflavone, reference compound]
CDNB Assay % Inhibition (AmGSTF1 [1]; 10 µM compound): 47% | CDNB Assay % Inhibition (AmGSTF1 [1]; 100 µM compound): 96% | Thermal Shift Assay ∆Tm (AmGSTF1 [2]; 1 µM): 0.1 | Thermal Shift Assay ∆Tm (AmGSTF1 [2]; 10 µM): 0.1 | Thermal Shift Assay ∆Tm (AmGSTF1 [2]; 100 µM): 0.2

O=c1c(O)c(-c2ccc(O)c(O)c2)oc2cc(O)cc(O)c12 [compound 3, quercetin, reference compound]
CDNB Assay % Inhibition (AmGSTF1 [1]; 10 µM compound): 44% | CDNB Assay % Inhibition (AmGSTF1 [1]; 100 µM compound): 94% | Solubility in aqueous solutions (in words) [4]: high solubility

O=c1cc(-c2ccccc2)oc2ccc(O)cc12 [compound 4, reference compound]
CDNB Assay % Inhibition (AmGSTF1 [1]; 100 µM compound): 61% | Thermal Shift Assay ∆Tm (AmGSTF1 [2]; 1 µM): 0.4 | Thermal Shift Assay ∆Tm (AmGSTF1 [2]; 10 µM): 0.0 | Thermal Shift Assay ∆Tm (AmGSTF1 [2]; 100 µM): -0.2

O=c1cc(-c2ccccc2)oc2ccccc12 [compound 7, reference compound]
CDNB Assay % Inhibition (AmGSTF1 [1]; 100 µM compound): 14% | Thermal Shift Assay ∆Tm (AmGSTF1 [2]; 1 µM): 0.3 | Thermal Shift Assay ∆Tm (AmGSTF1 [2]; 10 µM): 0.0 | Thermal Shift Assay ∆Tm (AmGSTF1 [2]; 100 µM): -0.2

COc1cc(OC)c2c(=O)cc(-c3nnc(C)o3)oc2c1 [compound 19]
CDNB Assay % Inhibition (AmGSTF1 [1]; 10 µM compound): 8% | CDNB Assay % Inhibition (AmGSTF1 [1]; 100 µM compound): 53% | Thermal Shift Assay ∆Tm (AmGSTF1 [2]; 1 µM): -0.10 | Thermal Shift Assay ∆Tm (AmGSTF1 [2]; 10 µM): -0.17 | Thermal Shift Assay ∆Tm (AmGSTF1 [2]; 100 µM): -0.27

COc1cc(OC)c2c(=O)cc(-c3ncco3)oc2c1 [compound 20]
CDNB Assay % Inhibition (AmGSTF1 [1]; 10 µM compound): 11% | CDNB Assay % Inhibition (AmGSTF1 [1]; 100 µM compound): 64% | Thermal Shift Assay ∆Tm (AmGSTF1 [2]; 1 µM): -0.10 | Thermal Shift Assay ∆Tm (AmGSTF1 [2]; 10 µM): -0.17 | Thermal Shift Assay ∆Tm (AmGSTF1 [2]; 100 µM): -0.23

COc1cc(OC)c2c(=O)cc(-c3nnn[nH]3)oc2c1 [compound 22]
CDNB Assay % Inhibition (AmGSTF1 [1]; 10 µM compound): 13% | CDNB Assay % Inhibition (AmGSTF1 [1]; 100 µM compound): 53% | Thermal Shift Assay ∆Tm (AmGSTF1 [2]; 1 µM): -0.23 | Thermal Shift Assay ∆Tm (AmGSTF1 [2]; 10 µM): -0.27 | Thermal Shift Assay ∆Tm (AmGSTF1 [2]; 100 µM): -0.43

COc1cc(OC)c2c(=O)cc(-c3nccs3)oc2c1 [compound 23]
CDNB Assay % Inhibition (AmGSTF1 [1]; 10 µM compound): 23% | CDNB Assay % Inhibition (AmGSTF1 [1]; 100 µM compound): 83% | Thermal Shift Assay ∆Tm (AmGSTF1 [2]; 1 µM): -0.40 | Thermal Shift Assay ∆Tm (AmGSTF1 [2]; 10 µM): -0.47 | Thermal Shift Assay ∆Tm (AmGSTF1 [2]; 100 µM): -0.50 | Solubility in aqueous solutions (in words) [4]: increased solubility

COc1cc(OC)c2c(=O)cc(-c3ccn[nH]3)oc2c1 [compound 24]
CDNB Assay % Inhibition (AmGSTF1 [1]; 10 µM compound): 6% | CDNB Assay % Inhibition (AmGSTF1 [1]; 100 µM compound): 59% | Thermal Shift Assay ∆Tm (AmGSTF1 [2]; 1 µM): -0.30 | Thermal Shift Assay ∆Tm (AmGSTF1 [2]; 10 µM): -0.07 | Thermal Shift Assay ∆Tm (AmGSTF1 [2]; 100 µM): -0.03

COc1cc(OC)c2c(=O)cc(-c3ccnn3C)oc2c1 [compound 25]
CDNB Assay % Inhibition (AmGSTF1 [1]; 10 µM compound): 9% | CDNB Assay % Inhibition (AmGSTF1 [1]; 100 µM compound): 58% | Thermal Shift Assay ∆Tm (AmGSTF1 [2]; 1 µM): 0 | Thermal Shift Assay ∆Tm (AmGSTF1 [2]; 10 µM): -0.03 | Thermal Shift Assay ∆Tm (AmGSTF1 [2]; 100 µM): -0.10

COc1cc(OC)c2c(=O)cc(-c3ccn(C)n3)oc2c1 [compound 26]
CDNB Assay % Inhibition (AmGSTF1 [1]; 10 µM compound): 19% | CDNB Assay % Inhibition (AmGSTF1 [1]; 100 µM compound): 64% | Thermal Shift Assay ∆Tm (AmGSTF1 [2]; 1 µM): 0 | Thermal Shift Assay ∆Tm (AmGSTF1 [2]; 10 µM): -0.03 | Thermal Shift Assay ∆Tm (AmGSTF1 [2]; 100 µM): -0.17

COc1cc(OC(C)C(=O)O)c2c(=O)cc(-c3ccccc3)oc2c1 (centres unmarked) [compound 41]
CDNB Assay % Inhibition (AmGSTF1 [1]; 10 µM compound): 14% | Thermal Shift Assay ∆Tm (AmGSTF1 [2]; 1 µM): 0.20 | Thermal Shift Assay ∆Tm (AmGSTF1 [2]; 10 µM): 0.20 | Thermal Shift Assay ∆Tm (AmGSTF1 [2]; 100 µM): 1.10

CCCCCC(Oc1cc(OC)cc2oc(-c3ccccc3)cc(=O)c12)C(=O)O (centres unmarked) [compound 42]
CDNB Assay % Inhibition (AmGSTF1 [1]; 1 µM compound): 4% | CDNB Assay % Inhibition (AmGSTF1 [1]; 10 µM compound): 69% | Thermal Shift Assay ∆Tm (AmGSTF1 [2]; 1 µM): 0.17 | Thermal Shift Assay ∆Tm (AmGSTF1 [2]; 10 µM): 0.43 | Thermal Shift Assay ∆Tm (AmGSTF1 [2]; 100 µM): 2.33

CCCCCCCC(Oc1cc(OC)cc2oc(-c3ccccc3)cc(=O)c12)C(=O)O (centres unmarked) [compound 43]
CDNB Assay % Inhibition (AmGSTF1 [1]; 1 µM compound): 40% | CDNB Assay % Inhibition (AmGSTF1 [1]; 10 µM compound): 86% | Thermal Shift Assay ∆Tm (AmGSTF1 [2]; 1 µM): 0.27 | Thermal Shift Assay ∆Tm (AmGSTF1 [2]; 10 µM): 0.70 | Thermal Shift Assay ∆Tm (AmGSTF1 [2]; 100 µM): 2.93

CCCCCCCCCC(Oc1cc(OC)cc2oc(-c3ccccc3)cc(=O)c12)C(=O)O (centres unmarked) [compound 44]
CDNB Assay % Inhibition (AmGSTF1 [1]; 1 µM compound): 58% | CDNB Assay % Inhibition (AmGSTF1 [1]; 10 µM compound): 97% | Thermal Shift Assay ∆Tm (AmGSTF1 [2]; 1 µM): 0.40 | Thermal Shift Assay ∆Tm (AmGSTF1 [2]; 10 µM): 0.70 | Thermal Shift Assay ∆Tm (AmGSTF1 [2]; 100 µM): 0.90

CCCCCCCCCCC(Oc1cc(OC)cc2oc(-c3ccccc3)cc(=O)c12)C(=O)O (centres unmarked) [compound 45]
CDNB Assay % Inhibition (AmGSTF1 [1]; 1 µM compound): 71% | CDNB Assay % Inhibition (AmGSTF1 [1]; 10 µM compound): 99% | CDNB Assay % Inhibition (AmGSTF1 [1]; 100 µM compound): 100% | Thermal Shift Assay ∆Tm (AmGSTF1 [2]; 1 µM): 0.30 | Thermal Shift Assay ∆Tm (AmGSTF1 [2]; 10 µM): 0.23 | Thermal Shift Assay ∆Tm (AmGSTF1 [2]; 100 µM): 1.17

CCCCCCCCCCCCC(Oc1cc(OC)cc2oc(-c3ccccc3)cc(=O)c12)C(=O)O (centres unmarked) [compound 46]
CDNB Assay % Inhibition (AmGSTF1 [1]; 1 µM compound): 75% | CDNB Assay % Inhibition (AmGSTF1 [1]; 10 µM compound): 90% | CDNB Assay % Inhibition (AmGSTF1 [1]; 100 µM compound): 100% | Thermal Shift Assay ∆Tm (AmGSTF1 [2]; 1 µM): 0.20 | Thermal Shift Assay ∆Tm (AmGSTF1 [2]; 10 µM): 0.73 | Thermal Shift Assay ∆Tm (AmGSTF1 [2]; 100 µM): 1.43

Br.COC(=O)C(CCCCN)Oc1cc(OC)cc2oc(-c3ccccc3)cc(=O)c12 (centres unmarked) [compound 51]
CDNB Assay % Inhibition (AmGSTF1 [1]; 10 µM compound): 25% | Thermal Shift Assay ∆Tm (AmGSTF1 [2]; 1 µM): 0.20 | Thermal Shift Assay ∆Tm (AmGSTF1 [2]; 10 µM): 0.43 | Thermal Shift Assay ∆Tm (AmGSTF1 [2]; 100 µM): 0.57

CCCCC(=O)NCCCCC(Oc1cc(OC)cc2oc(-c3ccccc3)cc(=O)c12)C(=O)O (centres unmarked) [compound 52]
CDNB Assay % Inhibition (AmGSTF1 [1]; 1 µM compound): 6% | CDNB Assay % Inhibition (AmGSTF1 [1]; 10 µM compound): 39% | Thermal Shift Assay ∆Tm (AmGSTF1 [2]; 1 µM): 0.13 | Thermal Shift Assay ∆Tm (AmGSTF1 [2]; 10 µM): 0.30 | Thermal Shift Assay ∆Tm (AmGSTF1 [2]; 100 µM): 1.10
